# Source: publication PMC6497071 (Bioorganic & medicinal chemistry letters, 2018)
# Where two headings read alike, the source gives them in different places.
# How the values were obtained:
# [1] = system: panel of 60 human tumor cell lines; assay: NCI-60 five dose assay, whole panel summary; format: cell-based
# [2] = system: tubulin; assay: tubulin polymerization cell-based immunoblot assay; settings: immunoblot of pellet and supernatant
# [3] = system: MV4-11 leukemia cells; assay: MV4-11 leukemia cell viability; format: cell-based, human
# [4] = system: SK-MEL-28; settings: SK-MEL-28 (Melanoma), five dose; cited from earlier work
# [5] = system: MDA-MB-468; settings: MDA-MB-468 (Breast Cancer), five dose; cited from earlier work
# [6] = system: U251; settings: U251 (CNS Cancer), five dose; cited from earlier work
# [7] = system: SK-MEL-5; settings: SK-MEL-5 (Melanoma), five dose; cited from earlier work
# [8] = system: OVCAR-4; settings: OVCAR-4 (Ovarian Cancer), five dose; cited from earlier work
# [9] = system: NCI-H522; settings: NCI-H522 (Lung Cancer), five dose; cited from earlier work
# [10] = system: SF-295; settings: SF-295 (CNS Cancer), five dose; cited from earlier work
# [11] = system: NCI-H23; settings: NCI-H23 (Lung Cancer), five dose; cited from earlier work
# [12] = system: UO-31; settings: UO-31 (Renal Cancer), five dose; cited from earlier work
# [13] = system: HOP-92; settings: HOP-92 (Lung Cancer), five dose; cited from earlier work
# [14] = system: HS 578T; settings: HS 578T (Breast Cancer), five dose; cited from earlier work
# [15] = system: COLO 205; settings: COLO 205 (Colon Cancer), five dose; cited from earlier work
# [16] = system: SNB-19; settings: SNB-19 (CNS Cancer), five dose; cited from earlier work
# [17] = system: MDA-MB-435; settings: MDA-MB-435 (Melanoma), five dose; cited from earlier work
# [18] = system: SK-OV-3; settings: SK-OV-3 (Ovarian Cancer), five dose; cited from earlier work
# [19] = system: UACC-62; settings: UACC-62 (Melanoma), five dose; cited from earlier work
# [20] = system: KM12; settings: KM12 (Colon Cancer), five dose; cited from earlier work
# [21] = system: OVCAR-3; settings: OVCAR-3 (Ovarian Cancer), five dose; cited from earlier work
# [22] = system: IGROV1; settings: IGROV1 (Ovarian Cancer), five dose; cited from earlier work
# [23] = system: MDA-MB-231/ATCC; settings: MDA-MB-231/ATCC (Breast Cancer), five dose; cited from earlier work
# [24] = system: LOX IMVI; settings: LOX IMVI (Melanoma), five dose; cited from earlier work
# [25] = system: panel of 60 human tumor cell lines; settings: against 87% of the cancer cell lines; cited from earlier work
# [26] = system: CCRF-CEM; settings: CCRF-CEM (Leukemia), five dose; cited from earlier work
# [27] = system: HOP-62; settings: HOP-62 (Lung Cancer), five dose; cited from earlier work
# [28] = system: A549/ATCC; settings: A549/ATCC (Lung Cancer), five dose; cited from earlier work
# [29] = system: SK-MEL-2; settings: SK-MEL-2 (Melanoma), five dose; cited from earlier work
# [30] = system: HCT-116; settings: HCT-116 (Colon Cancer), five dose; cited from earlier work
# [31] = system: ACHN; settings: ACHN (Renal Cancer), five dose; cited from earlier work
# [32] = system: RPMI-8226; settings: RPMI-8226 (Leukemia), five dose; cited from earlier work
# [33] = system: MCF7; settings: MCF7 (Breast Cancer), five dose; cited from earlier work
# [34] = system: K-562; settings: K-562 (Leukemia), five dose; cited from earlier work
# [35] = system: SR; settings: SR (Leukemia), five dose; cited from earlier work
# [36] = system: HCC-2998; settings: HCC-2998 (Colon Cancer), five dose; cited from earlier work
# [37] = system: SNB-75; settings: SNB-75 (CNS Cancer), five dose; cited from earlier work
# [38] = system: NCI/ADR-RES; settings: NCI/ADR-RES (Ovarian Cancer), five dose; cited from earlier work
# [39] = system: 786-0; settings: 786-0 (Renal Cancer), five dose; cited from earlier work
# [40] = system: M14; settings: M14 (Melanoma), five dose; cited from earlier work
# [41] = system: SF-539; settings: SF-539 (CNS Cancer), five dose; cited from earlier work
# [42] = system: MOLT-4; settings: MOLT-4 (Leukemia), five dose; cited from earlier work
# [43] = system: HCT-15; settings: HCT-15 (Colon Cancer), five dose; cited from earlier work
# [44] = system: HL-60(TB); settings: HL-60(TB) (Leukemia), five dose; cited from earlier work
# [45] = system: A498; settings: A498 (Renal Cancer), five dose; cited from earlier work
# [46] = system: SF-268; settings: SF-268 (CNS Cancer), five dose; cited from earlier work
# [47] = system: CAKI-1; settings: CAKI-1 (Renal Cancer), five dose; cited from earlier work
# [48] = system: HT29; settings: HT29 (Colon Cancer), five dose; cited from earlier work
# [49] = system: SW-620; settings: SW-620 (Colon Cancer), five dose; cited from earlier work
compound,measurement,setting,value
"COc1ccc(/C=C(/c2cc(OC)c(OC)c(OC)c2)c2nnn[nH]2)cc1O [Compound 8h, (Z)-5-(2-(1H-Tetrazol-5-yl)-2-(3,4,5-trimethoxyphenyl)vinyl)-2-methoxyphenol]",GI50,[1]; 60 cell,< 10 nM
same,inhibition of tubulin polymerization,[2]; 1.0 μM and 2.0 μM,inhibited tubulin polymerization
same,inhibition of tubulin polymerization,[2]; 2.0 μM,Significant inhibition
same,LD50 (24h),[3],0.03 µM
same,LD50 (48h),[3],0.02 µM
same,LD50,[3]; time not stated in text (equals 24h value of Table 4),30 nM
same,LD50,[3]; time not stated in text (equals 48h value of Table 4),20 nM
"COc1ccc(/C=C(/c2cc(OC)c(OC)c(OC)c2)c2nnn[nH]2)cc1 [Compound 8g, (Z)-5-(2-(4-Methoxyphenyl)-1-(3,4,5-trimethoxyphenyl)vinyl)-1H-tetrazole]",inhibition of tubulin polymerization,[2]; 1.0 μM and 2.0 μM,inhibited tubulin polymerization
same,inhibition of tubulin polymerization,[2]; 2.0 μM,Significant inhibition
same,LD50 (24h),[3],4.60 µM
same,LD50 (48h),[3],4.29 µM
same,fold less effective when compared with 8h,[3]; LD50 ratio,~170 fold
"COc1ccc(/C(=C/c2ccc3ccccc3c2)c2nnn[nH]2)cc1OC [Compound 10b, (Z)-5-(1-(3,4-Dimethoxyphenyl)-2-(naphthalen-2-yl)vinyl)-1H-tetrazole]",GI50,[1]; against more than 30% of the human cancer cell lines,< 2500 nM
same,GI50,[1]; against only 15% of the cell lines in the panel,< 2000 nM
same,inhibition of tubulin polymerization,[2]; 1.0 μM and 2.0 μM,inhibited tubulin polymerization
same,inhibition of tubulin polymerization,[2]; 2.0 μM,significantly less active
same,LD50 (24h),[3],1.08 µM
same,LD50 (48h),[3],1.01 µM
COc1ccc(/C=C(\C#N)c2cc(OC)c(OC)c(OC)c2)cc1O [Compound 5],GI50,[4],1010 nM
same,GI50,[5],< 10 nM
same,GI50,[6],10 nM
same,GI50,[7],< 10 nM
same,GI50,[8],< 10 nM
same,GI50,[9],< 10 nM
same,GI50,[10],50 nM
same,GI50,[11],< 10 nM
same,GI50,[12],< 10 nM
same,GI50,[13],< 10 nM
same,GI50,[14],< 10 nM
same,GI50,[15],2990 nM
same,GI50,[16],< 10 nM
same,GI50,[17],< 10 nM
same,GI50,[18],10 nM
same,GI50,[19],< 10 nM
same,GI50,[20],< 10 nM
same,GI50,[21],< 10 nM
same,GI50,[22],< 10 nM
same,GI50,[23],< 10 nM
same,GI50,[24],< 10 nM
same,GI50,[25],< 10 nM
same,GI50,[26],< 10 nM
same,GI50,[27],< 10 nM
same,GI50,[28],< 10 nM
same,LD50 (48h),[3],0.04 µM
same,GI50,[29],< 10 nM
same,GI50,[30],< 10 nM
same,GI50,[31],< 10 nM
same,GI50,[32],< 10 nM
same,GI50,[33],< 10 nM
same,GI50,[34],< 10 nM
same,GI50,[35],< 10 nM
same,GI50,[36],20 nM
same,GI50,[37],< 10 nM
same,GI50,[38],< 10 nM
same,GI50,[39],< 10 nM
same,GI50,[40],< 10 nM
same,GI50,[41],< 10 nM
same,GI50,[42],< 10 nM
same,GI50,[43],< 10 nM
same,GI50,[44],< 10 nM
same,GI50,[45],< 10 nM
same,GI50,[46],< 10 nM
same,GI50,[47],30 nM
same,GI50,[48],3.18 µM
same,GI50,[49],< 10 nM
"COc1ccccc1/C=C(/c1cc(Br)cc(Br)c1)c1nnn[nH]1 [Compound 8c, (Z)-5-(1-(3,5-Dibromophenyl)-2-(2-methoxyphenyl)vinyl)-1H-tetrazole]",LD50 (24h),[3],28.8 µM
same,LD50 (48h),[3],28.6 µM
"COc1ccc(/C=C(/c2ccc([N+](=O)[O-])cc2)c2nnn[nH]2)c2ccccc12 [Compound 10a, (Z)-5-(2-(4-Methoxynaphthalen-1-yl)-1-(4-nitrophenyl)vinyl)-1H-tetrazole]",inhibition of tubulin polymerization,[2]; 1.0 μM and 2.0 μM,inhibited tubulin polymerization
same,inhibition of tubulin polymerization,[2]; 2.0 μM,Significant inhibition
same,LD50 (24h),[3],1.46 µM
same,LD50 (48h),[3],1.39 µM
